Data published in patent US11566030B2, “Substituted 2,6-dihydropyrrolo[3,4-c]pyrazoles as pyruvate kinase activators” (priority 2021, dated 2023).
Like-named read-outs stand apart in the source and are kept apart here.

Molecular target: T1, Human pyruvate kinase R (PKR) (Homo sapiens, UniProt P30613)
T1 construct: Human pyruvate kinase R (PKR), residues 14-574; 6xHis-8xArg-SUMO (N, cleaved yes); host or cells: E. coli
Test: Biochemical assay for activation of pyruvate kinase R (Kinase-Glo luminescence, ATP generation)
Settings: for Emax: read-out: PKR % activation, maximal activation level achieved with each compound relative to the activation level achieved by AG-348 @ 10 μM
Description: Human pyruvate kinase R (PKR), residues 14-574, and human pyruvate kinase M2, residues 1-531, were cloned into expression plasmids and obtained from ATUM Bio (Newark, Calif.). Proteins were translated as fusions with 6×-His,8×-Arg, and SUMO at the N-terminus. A third construct of human PKR was truncated, residues 50-574, and similarly cloned for use in crystallography experiments. All proteins were cloned, expressed in E. coli, and purified using similar protocols. Cells were grown at 30° C. in Luria-Bertani broth supplemented with 0.4% glucose to OD600=0.8 and induced with 0.4 mM IPTG at 16° C. for 18 hours. Cells were harvested by centrifugation, resuspended in 50 mM potassium phosphate pH 8.0, 500 mM NaCl, 25 mM imidazole pH 8.0, and 3 mM β-mercaptoethanol. Cells were lysed using a LM20 microfluidizer from Microfluidics (Westwood, Mass.). The crude lysate was immediately supplemented with 0.2 mM phenylmethylsulfonyl fluoride (PMSF) and centrifuged at 20,000 g for 20 minutes. The soluble fraction was subsequently incubated with 2 mL Ni-NTA (GE Healthcare) per 1,000 ODs for 1 hour at 4° C. Following incubation with the Ni-NTA resin, lysate was removed by pelleting resin at 2,500 g for 3 minutes and washed 3 times with 9 bed volumes of 50 mM potassium phosphate pH 8.0, 500 mM NaCl, 25 mM imidazole, and 3 mM β-mercaptoethanol. Following the batch wash Ni-NTA resin was loaded onto a gravity column and His-tagged protein was eluted with 6 bed volumes of 10 mM Tris/HCl pH 8.0, 200 mM NaCl, 500 mM imidazole, and 3 mM β-mercaptoethanol. Eluted protein was dialyzed overnight against 10 mM Tris/HCl pH 8.0, 200 mM NaCl, and 1 mM DTT and the 6×-His-8×-Arg-SUMO-tag was cleaved using a 20:1 molar ratio of protein: 3C protease. The protein was purified by anion exchange chromatography on a HiTrapQ or MonoQ 10/100 GL column (GE Healthcare) via a linear NaCl gradient and twice by size exclusion chromatography using a Superdex S200 26/60 column (GE Healthcare) run in 10 mM Tris/HCl pH 8.0, 200 mM NaCl, 10 mM MgCl2, 1 mM DTT. Proteins were concentrated to −12 mg/mL for crystallization and flash frozen for storage.
Biochemical assay for Activation of Pyruvate Kinase R
Activation of pyruvate kinase R (PKR) and pyruvate kinase M2 (PKM2) were measured using a luminescence based measurement of ATP generation and the Kinase-Glo luminescent kinase reagent kit.

[1] = PKR AC50 (nM), 0.1 nM PKR, 0.3 mM ADP, 0.1 mM PEP, 1% DMSO

T1 sequence (P30613 14-574): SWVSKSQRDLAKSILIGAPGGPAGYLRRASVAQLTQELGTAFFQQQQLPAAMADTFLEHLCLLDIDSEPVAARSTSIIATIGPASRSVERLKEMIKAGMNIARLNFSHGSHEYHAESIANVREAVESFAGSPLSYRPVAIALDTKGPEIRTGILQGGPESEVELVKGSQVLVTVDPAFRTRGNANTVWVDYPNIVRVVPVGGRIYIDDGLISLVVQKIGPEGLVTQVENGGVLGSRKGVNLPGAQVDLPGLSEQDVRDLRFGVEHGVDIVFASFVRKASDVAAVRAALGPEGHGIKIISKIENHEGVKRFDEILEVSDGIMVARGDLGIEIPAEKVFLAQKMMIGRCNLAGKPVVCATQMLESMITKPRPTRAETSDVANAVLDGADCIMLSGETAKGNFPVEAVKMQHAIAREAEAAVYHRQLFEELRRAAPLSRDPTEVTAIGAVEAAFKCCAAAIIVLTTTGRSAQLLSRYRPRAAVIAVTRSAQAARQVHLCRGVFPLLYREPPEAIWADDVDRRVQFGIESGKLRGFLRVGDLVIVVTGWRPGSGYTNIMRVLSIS

AC50	Emax	AC50 [1]	Compound
140 nM	112%		O=C([C@H](O)c1ccccc1F)N1Cc2cn(S(=O)(=O)c3ccn(CC(F)F)n3)nc2C1 [Compound 51, (2R)-1-{2-[1-(2,2-difluoroethyl)pyrazol-3-ylsulfonyl]-4H,6H-pyrrolo[3,4-c]pyrazol-5-yl}-2-(2-fluorophenyl)-2-hydroxyethanone]
	93%	24 nM	O=C(N1Cc2cn(S(=O)(=O)c3cnn(CC(F)(F)F)c3)nc2C1)C1(c2ncccc2Cl)COC1 [Compound 52, (3-(3-chloropyridin-2-yl)oxetan-3-yl)(2-((1-(2,2,2-trifluoroethyl)-1H-pyrazol-4-yl)sulfonyl)-2,6-dihydropyrrolo[3,4-c]pyrazol-5(4H)-yl)methanone]
	100%	5.2 nM	O=C([C@H](CO)c1cccc(F)c1F)N1Cc2cn(S(=O)(=O)c3cnn(CC(F)F)c3)nc2C1 [Compound 53, (2S)-1-{2-[1-(2,2-difluoroethyl)pyrazol-4-ylsulfonyl]-4H,6H-pyrrolo[3,4-c]pyrazol-5-yl}-2-(2,3-difluorophenyl)-3-hydroxypropan-1-one]
	108%	260 nM	O=C([C@@H](CO)c1cccc(F)c1F)N1Cc2cn(S(=O)(=O)c3cnn(CC(F)F)c3)nc2C1 [Compound 54, (2R)-1-{2-[1-(2,2-difluoroethyl)pyrazol-4-ylsulfonyl]-4H,6H-pyrrolo[3,4-c]pyrazol-5-yl}-2-(2,3-difluorophenyl)-3-hydroxypropan-1-one]
5.1 nM	98%		O=C([C@H](CO)c1cccc(F)c1Cl)N1Cc2cn(S(=O)(=O)c3cnn(CC(F)F)c3)nc2C1 [Compound 55, (2S)-2-(2-chloro-3-fluorophenyl)-1-{2-[1-(2,2-difluoroethyl)pyrazol-4-ylsulfonyl]-4H,6H-pyrrolo[3,4-c]pyrazol-5-yl}-3-hydroxypropan-1-one]
170 nM	122%		O=C([C@@H](CO)c1cccc(F)c1Cl)N1Cc2cn(S(=O)(=O)c3cnn(CC(F)F)c3)nc2C1 [Compound 56, (2R)-2-(2-chloro-3-fluorophenyl)-1-{2-[1-(2,2-difluoroethyl)pyrazol-4-ylsulfonyl]-4H,6H-pyrrolo[3,4-c]pyrazol-5-yl}-3-hydroxypropan-1-one]
	50%	6.7 nM	CC(C)n1cc(S(=O)(=O)n2cc3c(n2)CN(C(=O)[C@H](CO)c2ccccc2F)C3)cn1 [Compound 57, (2S)-2-(2-fluorophenyl)-3-hydroxy-1-[2-(1-isopropylpyrazol-4-ylsulfonyl)-4H,6H-pyrrolo[3,4-c]pyrazol-5-yl]propan-1-one]
30 nM	59%		O=C([C@H](CO)c1ccccc1F)N1Cc2cn(S(=O)(=O)c3cnn(CCC(F)(F)F)c3)nc2C1 [Compound 58, (S)-2-(2-fluorophenyl)-3-hydroxy-1-(2-((1-(3,3,3-trifluoropropyl)-1H-pyrazol-4-yl)sulfonyl)-2,6-dihydropyrrolo[3,4-c]pyrazol-5(4H)-yl)propan-1-one]
1600 nM	55%		O=C([C@@H](CO)c1ccccc1F)N1Cc2cn(S(=O)(=O)c3cnn(CCC(F)(F)F)c3)nc2C1 [Compound 59, (R)-2-(2-fluorophenyl)-3-hydroxy-1-(2-((1-(3,3,3-trifluoropropyl)-1H-pyrazol-4-yl)sulfonyl)-2,6-dihydropyrrolo[3,4-c]pyrazol-5(4H)-yl)propan-1-one]
	74%	28 nM	COCCn1cc(S(=O)(=O)n2cc3c(n2)CN(C(=O)[C@H](CO)c2ccccc2F)C3)cn1 [Compound 60, (2S)-2-(2-fluorophenyl)-3-hydroxy-1-{2-[1-(2-methoxyethyl)pyrazol-4-ylsulfonyl]-4H,6H-pyrrolo[3,4-c]pyrazol-5-yl}propan-1-one]
	49%	3000 nM	COCCn1cc(S(=O)(=O)n2cc3c(n2)CN(C(=O)[C@@H](CO)c2ccccc2F)C3)cn1 [Compound 61, (2R)-2-(2-fluorophenyl)-3-hydroxy-1-{2-[1-(2-methoxyethyl)pyrazol-4-ylsulfonyl]-4H,6H-pyrrolo[3,4-c]pyrazol-5-yl}propan-1-one]
